biological target: T1, WTapPOL (intact exonuclease domain) (Plasmodium falciparum, UniProt Q8ILY1); assay: […]'-5' exonuclease assay, 2-aminopurine release from blunt-ended dsDNA; format: biochemical; conditions: not given
T1 sequence (Q8ILY1 1389-2016): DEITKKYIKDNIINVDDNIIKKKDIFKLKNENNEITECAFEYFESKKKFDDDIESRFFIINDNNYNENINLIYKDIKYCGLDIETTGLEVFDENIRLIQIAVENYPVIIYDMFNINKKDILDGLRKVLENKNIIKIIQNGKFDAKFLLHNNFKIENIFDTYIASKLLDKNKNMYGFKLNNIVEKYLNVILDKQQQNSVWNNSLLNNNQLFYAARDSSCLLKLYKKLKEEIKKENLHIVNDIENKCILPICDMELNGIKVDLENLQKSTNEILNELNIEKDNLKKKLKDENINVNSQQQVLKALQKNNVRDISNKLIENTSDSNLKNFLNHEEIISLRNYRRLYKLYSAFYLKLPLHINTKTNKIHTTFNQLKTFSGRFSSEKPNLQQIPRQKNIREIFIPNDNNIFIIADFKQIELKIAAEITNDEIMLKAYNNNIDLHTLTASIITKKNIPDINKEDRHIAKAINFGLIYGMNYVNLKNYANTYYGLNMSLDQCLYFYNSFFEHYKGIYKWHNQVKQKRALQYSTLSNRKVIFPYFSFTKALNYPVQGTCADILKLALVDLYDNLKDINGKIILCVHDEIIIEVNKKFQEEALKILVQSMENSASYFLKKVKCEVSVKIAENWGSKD

Question: With `CC(C)(C)c1ccc(S(=O)(=O)Nc2c3c(nn2-c2cccc(C(F)(F)F)c2)CSC3)cc1` [6e] as the molecule, how does the IC50 read?
Answer: 41 ± 6.7 µM

Question: Which IC50 does the source give for `CC(C)(C)c1ccc(S(=O)(=O)Nc2c3c(nn2-c2cccc(Cl)c2)CSC3)cc1` [6a] here?
Answer: 40 ± 5.7 µM

Question: How did the IC50 turn out when `CC(C)(C)c1ccc(S(=O)(=O)Nc2c3c(nn2-c2ccc(Cl)cc2)CSC3)cc1` [6b] was run?
Answer: 21 ± 2.5 µM

Question: `CC(C)(C)c1ccc(S(=O)(=O)Nc2c3c(nn2-c2ccc(C(F)(F)F)cc2)CSC3)cc1` [6f] was tested. Which IC50 did it give?
Answer: 16 ± 0.9 µM

biological target: T1, WTapPOL (intact exonuclease domain); assay: as above; format: biochemical; conditions: read-out: % inhibition at 100 μM

Question: `CC(C)(C)c1ccc(NC(=O)Nc2c3c(nn2-c2cccc(C(F)(F)F)c2)CSC3)cc1` [7e] was tested. Which inhibition at 100 µM did it give?
Answer: < 50%

Question: With `CC(C)(C)c1ccc(NC(=O)Nc2c3c(nn2-c2cccc(Cl)c2)CSC3)cc1` [7a] as the molecule, how does the inhibition at 100 µM read?
Answer: < 50%

Question: With `CC(C)(C)c1ccc(NC(=O)Nc2c3c(nn2-c2ccc(Cl)cc2)CSC3)cc1` [7b] as the molecule, how does the inhibition at 100 µM read?
Answer: < 50%

Question: Which inhibition at 100 µM does the source give for `CC(C)(C)c1ccc(C(=O)Nc2c3c(nn2-c2cccc(Cl)c2)CSC3)cc1` [5a, MMV666123] here?
Answer: < 50%

Question: `CC(C)(C)c1ccc(NC(=O)Nc2c3c(nn2-c2cccc(Cl)c2)COC3)cc1` [13a] was tested. Which inhibition at 100 µM did it give?
Answer: < 50%

Reference: article doi:10.1101/2022.03.07.483284v1 (biorxiv, 2022)
